Earlier results, collected in patent publication US20070020249A1, “COMPOSITIONS FOR PREVENTION AND TREATEMENT OF SYMPTOMS OF GASTROINTESTINAL DISTRESS” (priority 2005, published 2007).

Settings: humans; Auburn University study

Substance: oxygen-coordinated chromium polynicotinate
- reduction of LDL cholesterol, average: 14%
